Measurements: the CheMixHub viscosity set
Several values for one entry are separate records, joined by “and”; a condition that tells them apart may be missing. Equal values may be shown once.

Assay: xn = mol fraction of the nth substance listed

NCCO + O
Settings | viscosity
293.15 K, 100 kPa, x2 = 0.46 | 21.2 mPa·s
293.15 K, 101 kPa, x1 = 0.03289 | 1.389 mPa·s
293.15 K, 101 kPa, x1 = 0.06899 | 1.903 mPa·s
293.15 K, 101 kPa, x1 = 0.069 | 1.88 mPa·s
293.15 K, 101 kPa, x1 = 0.0699 | 1.953 mPa·s
293.15 K, 101 kPa, x1 = 0.1124 | 3.125 mPa·s
293.15 K, 101 kPa, x1 = 0.1654 | 4.243 mPa·s
293.15 K, 101 kPa, x1 = 0.23 | 6.17 mPa·s
293.15 K, 101 kPa, x1 = 0.3043 | 9.893 mPa·s
293.15 K, 101 kPa, x1 = 0.47 | 16.6 mPa·s
293.15 K, 101 kPa, x1 = 0.6204 | 23.11 mPa·s
293.15 K, 101 kPa, x1 = 0.803 | 25.85 mPa·s
293.15 K, 101 kPa, x2 = 0.84 | 4.64 mPa·s
293.15 K, 101 kPa, x2 = 0.93 | 2.002 mPa·s
293.15 K, 101.3 kPa, x1 = 0.07 | 2.005 mPa·s
293.15 K, 101.3 kPa, x1 = 0.2 | 4.667 mPa·s and 7.345 mPa·s
293.15 K, 101.3 kPa, x1 = 0.3 | 11.29 mPa·s
293.15 K, 101.3 kPa, x1 = 0.4 | 15.77 mPa·s
293.15 K, 101.3 kPa, x1 = 0.5 | 21 mPa·s
293.15 K, 101.3 kPa, x1 = 0.7 | 24.02 mPa·s
298.14 K, 100 kPa, x1 = 0.112 | 2.464 mPa·s
298.15 K, 100 kPa, x1 = 0.069 | 1.621 mPa·s
298.15 K, 100 kPa, x1 = 0.11 | 2.415 mPa·s
298.15 K, 100 kPa, x1 = 0.112 | 2.467 mPa·s and 2.464 mPa·s
298.15 K, 101 kPa, x1 = 0.03289 | 1.224 mPa·s
298.15 K, 101 kPa, x1 = 0.06899 | 1.689 mPa·s
298.15 K, 101 kPa, x1 = 0.1121 | 2.44 mPa·s
298.15 K, 101 kPa, x1 = 0.1122 | 2.54 mPa·s
298.15 K, 101 kPa, x1 = 0.1124 | 2.714 mPa·s
298.15 K, 101 kPa, x1 = 0.1422 | 3.11 mPa·s
298.15 K, 101 kPa, x2 = 0.84 | 3.41 mPa·s and 3.76 mPa·s
298.15 K, 101 kPa, x2 = 0.8878 | 2.52 mPa·s
298.15 K, 101 kPa, x2 = 0.89 | 2.46 mPa·s
298.15 K, 101.3 kPa, x1 = 0.03 | 1.299 mPa·s
298.15 K, 101.3 kPa, x1 = 0.1 | 2.489 mPa·s
298.15 K, 101.3 kPa, x1 = 0.2 | 3.765 mPa·s and 5.547 mPa·s
298.15 K, 101.3 kPa, x1 = 0.3 | 9.062 mPa·s
298.15 K, 101.3 kPa, x1 = 0.4 | 12.6 mPa·s
298.15 K, 101.3 kPa, x1 = 0.5 | 16.29 mPa·s
298.15 K, 101.3 kPa, x1 = 0.7 | 19.9 mPa·s
303.15 K, 100 kPa, x1 = 0.1 | 1.91 mPa·s
303.15 K, 100 kPa, x1 = 0.2 | 3.87 mPa·s
303.15 K, 100 kPa, x1 = 0.3 | 6.67 mPa·s
303.15 K, 100 kPa, x1 = 0.4 | 9.68 mPa·s
303.15 K, 100 kPa, x1 = 0.5 | 12.3 mPa·s
303.15 K, 100 kPa, x1 = 0.6 | 14 mPa·s
303.15 K, 100 kPa, x2 = 0.46 | 13.1 mPa·s
303.15 K, 101 kPa, x1 = 0.03289 | 1.087 mPa·s
303.15 K, 101 kPa, x1 = 0.06899 | 1.482 mPa·s
303.15 K, 101 kPa, x1 = 0.0699 | 1.477 mPa·s and 1.177 mPa·s
303.15 K, 101 kPa, x1 = 0.1122 | 2.19 mPa·s
303.15 K, 101 kPa, x1 = 0.1124 | 2.397 mPa·s
303.15 K, 101 kPa, x1 = 0.1422 | 2.65 mPa·s
303.15 K, 101 kPa, x1 = 0.1654 | 3.059 mPa·s
303.15 K, 101 kPa, x1 = 0.3043 | 6.608 mPa·s
303.15 K, 101 kPa, x1 = 0.6204 | 13.65 mPa·s
303.15 K, 101 kPa, x1 = 0.803 | 15.72 mPa·s
303.15 K, 101 kPa, x2 = 0.84 | 3.27 mPa·s
303.15 K, 101 kPa, x2 = 0.93 | 1.496 mPa·s
303.15 K, 101.3 kPa, x1 = 0.03 | 1.121 mPa·s
303.15 K, 101.3 kPa, x1 = 0.07 | 1.501 mPa·s
303.15 K, 101.3 kPa, x1 = 0.1 | 2.195 mPa·s
303.15 K, 101.3 kPa, x1 = 0.2 | 3.279 mPa·s and 4.96 mPa·s
303.15 K, 101.3 kPa, x1 = 0.3 | 7.417 mPa·s
303.15 K, 101.3 kPa, x1 = 0.4 | 10.31 mPa·s
303.15 K, 101.3 kPa, x1 = 0.5 | 13.15 mPa·s
308.15 K, 101 kPa, x1 = 0.03289 | 0.973 mPa·s
308.15 K, 101 kPa, x1 = 0.06899 | 1.31 mPa·s
308.15 K, 101 kPa, x1 = 0.1124 | 2.143 mPa·s
313 K, 101 kPa, x1 = 0.11 | 1.57 mPa·s
313.15 K, 100 kPa, x1 = 0.1 | 1.48 mPa·s
313.15 K, 100 kPa, x2 = 0.46 | 8.59 mPa·s
313.15 K, 101 kPa, x1 = 0.03289 | 0.878 mPa·s
313.15 K, 101 kPa, x1 = 0.11 | 1.66 mPa·s
313.15 K, 101 kPa, x1 = 0.1124 | 1.95 mPa·s
313.15 K, 101 kPa, x1 = 0.1422 | 1.99 mPa·s
313.15 K, 101 kPa, x1 = 0.3043 | 4.654 mPa·s
313.15 K, 101 kPa, x1 = 0.803 | 10.54 mPa·s
313.15 K, 101 kPa, x2 = 0.84 | 2.3 mPa·s
313.15 K, 101 kPa, x2 = 0.93 | 1.163 mPa·s
313.15 K, 101.3 kPa, x1 = 0.03 | 0.909 mPa·s
313.15 K, 101.3 kPa, x1 = 0.2 | 3.423 mPa·s
313.15 K, 101.3 kPa, x1 = 0.3 | 5.291 mPa·s
313.15 K, 101.3 kPa, x1 = 0.4 | 7.024 mPa·s
313.15 K, 101.3 kPa, x1 = 0.5 | 8.95 mPa·s
318.15 K, 101 kPa, x1 = 0.03289 | 0.798 mPa·s
318.15 K, 101 kPa, x1 = 0.06899 | 1.048 mPa·s
323 K, 101 kPa, x1 = 0.11 | 1.22 mPa·s
323.15 K, 100 kPa, x2 = 0.46 | 5.92 mPa·s
323.15 K, 101 kPa, x1 = 0.03289 | 0.731 mPa·s
323.15 K, 101 kPa, x1 = 0.06899 | 0.948 mPa·s
323.15 K, 101 kPa, x1 = 0.069 | 0.94 mPa·s
323.15 K, 101 kPa, x1 = 0.0699 | 0.973 mPa·s
323.15 K, 101 kPa, x1 = 0.1654 | 1.76 mPa·s
323.15 K, 101 kPa, x1 = 0.23 | 2.57 mPa·s
323.15 K, 101 kPa, x1 = 0.3043 | 3.401 mPa·s
323.15 K, 101 kPa, x1 = 0.47 | 5.37 mPa·s
323.15 K, 101 kPa, x1 = 0.6204 | 6.592 mPa·s
323.15 K, 101 kPa, x1 = 0.803 | 7.219 mPa·s
323.15 K, 101 kPa, x2 = 0.84 | 1.78 mPa·s
323.15 K, 101 kPa, x2 = 0.89 | 1.23 mPa·s
323.15 K, 101 kPa, x2 = 0.93 | 0.942 mPa·s
323.15 K, 101.3 kPa, x1 = 0.03 | 0.715 mPa·s
323.15 K, 101.3 kPa, x1 = 0.07 | 0.945 mPa·s
323.15 K, 101.3 kPa, x1 = 0.1 | 1.338 mPa·s
323.15 K, 101.3 kPa, x1 = 0.2 | 1.782 mPa·s and 2.566 mPa·s
323.15 K, 101.3 kPa, x1 = 0.3 | 3.771 mPa·s
323.15 K, 101.3 kPa, x1 = 0.4 | 5.055 mPa·s
323.15 K, 101.3 kPa, x1 = 0.5 | 6.273 mPa·s
323.15 K, 101.3 kPa, x1 = 0.7 | 7.09 mPa·s
